Consider 99 substances from patent publication US11707500B2, “Growth promoting peptides, and uses thereof” (NURITAS LIMITED, priority 2015, dated 2023).

Assay [1] has as its system Human Dermal Fibroblasts (HDF). In words: BrdU cell proliferation assay. Particulars: HDF incubated 24 h with 5, 0.5 or 0.05 μg/ml synthetic peptide; percentage of untreated control. The assay is classed as cell-based. How it is done: BrDu is incorporated into newly synthesised DNA strands of actively proliferating cells. Following partial denaturation of double stranded DNA, Brdu is detected immunochemically allowing the assessment of the population of cells which are synthesizing DNA.
Human Dermal Fibroblasts (HDF—Sigma 10605a) were seeded in a 96 well plate at 10,000 cells per well in DMEM containing 10% fetal calf serum (FCS), 1% Pen/strep, 1% L-glutamine and allowed to adhere for 24 h.
Following the initial 24 h incubation the cells were incubated with 5 μg/ml, 0.5 μg/ml or 0.05 μg/ml synthetic peptide for 24 h respectively.
After 18 h incubation with synthetic peptides 20 μl BrDu reagent was added to each well.
At 24 h incubation the cell were fixed and the amount of […] was measured using the BrdU Cell Proliferation Assay, all steps were carried out according to the manufacturer's instructions.
Results were calculated as a percentage of the untreated control. An increase in optical density reading indicates greatER incorporation of BrDu and increase cell proliferation.

The subject of assay [2] is Human Dermal Fibroblasts (HDF). As to the kind of experiment: BrdU cell proliferation assay. The note with it: text on FIGS. 1-100; incubated with synthetic peptide 24 h; vs untreated control. The assay is classed as cell-based.

As to 73 (ASSNLDLLGFG) [compound 73], in assay [1], the “INCREASE IN PROLIFERATION” value was 16%.
Same read-out and setting: as for 74 (DEEEEQGEEEINK) [compound 74], the figure is 29%; as for 83 (SRGPIYSNE) [compound 83], 32%.
In the case of 84 (EDDEEEEQGEEEINK) [compound 84], the “INCREASE IN PROLIFERATION” value in assay [1] is recorded as 20%.
As to 85 (DDEEEEQGEEEINK) [compound 85], the “INCREASE IN PROLIFERATION” value in assay [1] was 35%.
As for 93 (ITASSNLNLLGFG) [compound 93], the “INCREASE IN PROLIFERATION” value in assay [1] turned out to be 26%.
Still for that read-out and setting: in the case of 97 (LVIPVNGPGKFE) [compound 97] it was 26%.
Take 98 (LVIPVNGPGKFEA) [compound 98]: the “INCREASE IN PROLIFERATION” value in assay [1] stood at 49%.
Same read-out and setting: as for 105 (LVIPVNGPGKF) [compound 105], the figure is 40%; as for “112 (VVIIPAGHPVAITASSNLNLLGFG) [compound 112]”, 15%; as for 114 (YPQLQDLDL) [compound 114], 119%.
Same read-out and setting: as for 121 (LVIPVNGPGK) [compound 121], the figure is 48%; as for 124 (VIPVNGPGK) [compound 124], 15%; as for 146 (RHGEWRPSY) [compound 146], 80%.
As to 158 (NYDEGSEPRVPAQRE) [compound 158], the “INCREASE IN PROLIFERATION” value in assay [1] is 21%.
As to “181 (TIKLPAGTTSYLVNQDDEEDLRLVD) [compound 181]”, the “INCREASE IN PROLIFERATION” value in assay [1] was found to be 33%.
Turning to 222 (IDGYDTPVEGR) [compound 222], in assay [1], the “INCREASE IN PROLIFERATION” value was 110%.
Same read-out and setting: in the case of 226 (IYGPDTGVDYKDNQMR) [compound 226] it was 30%; in that of 247 (EGYYGEQQQQPGMTR) [compound 247], 28%.
Take 248 (GYYGEQQQQPGMTR) [compound 248]: the “INCREASE IN PROLIFERATION” value in assay [1] was 86%.
Consider 249 (EEGYYGEQQQQPGMTR) [compound 249], for which the “INCREASE IN PROLIFERATION” value in assay [1] worked out at 30%.
On the same count and under the same terms, as for 252 (SSEEGYYGEQQQQPGMTR) [compound 252], the figure is 111%.
As to 253 (SEEGYYGEQQQQPGMTR) [compound 253], the “INCREASE IN PROLIFERATION” value in assay [1] is on record as 112%.
Regarding 256 (YGEQQQQPGMTR) [compound 256], the “INCREASE IN PROLIFERATION” value in assay [1] worked out at 117%.
The same measure, in the same setting: in the case of 257 (YYGEQQQQPGMTR) [compound 257] it was 118%; in that of 270 (TVFNGVLRPGQLL) [compound 270], 47%.
Turning to 272 (NGVLRPGQL) [compound 272], the “INCREASE IN PROLIFERATION” value in assay [1] was 97%.
For the substance 285 (DALEPDNR) [compound 285], in assay [1], the “INCREASE IN PROLIFERATION” value was found to be 81%.
Regarding 330 (VIPAGHPVAVR) [compound 330], the “INCREASE IN PROLIFERATION” value in assay [1] was determined as 18%.
On the same count and under the same terms, in the case of 337 (IEKILLEE) [compound 337] it was 8%; in that of 341 (EVEERSQNIF) [compound 341], 83%.
359 (GAFTPLQYKSYQD) [compound 359]: the “INCREASE IN PROLIFERATION” value in assay [1] worked out at 15%.
Regarding ASSNLDLLGFG [SEQ ID NO: 73], the “increase in HDF cell proliferation” value in assay [2] stood at 16%.
On to DDEEEEQGEEEINK [SEQ ID NO: 85], for which the “increase in HDF cell proliferation” value in assay [2] came to 35%.
In the case of DEEEEQGEEEINK [SEQ ID NO: 74], the “increase in HDF cell proliferation” value in assay [2] is reported as 29%.
Turning to DSINALEPDHR [SEQ ID NO: 474], in assay [2], the “increase in HDF cell proliferation” value turned out to be 121%.
On the same count and under the same terms, as for EDDEEEEQGEEEINK [SEQ ID NO: 84], the figure is 20%; as for EEGYYGEQQQQPGMTR [SEQ ID NO: 249], 30%; as for EGYYGEQQQQPGMTR [SEQ ID NO: 247], 28%.
Take EVEERSQNIF [SEQ ID NO: 341]: in assay [2], the “increase in HDF cell proliferation” value worked out at 83%.
On to FHMPP [SEQ ID NO: 455], for which the “increase in HDF cell proliferation” value in assay [2] is on record as 47%.
For FWM (FWMA) [SEQ ID NO: 457], the “increase in HDF cell proliferation” value in assay [2] was 114%.
Regarding GAFTPLQYK [SEQ ID NO: 365], the “increase in HDF cell proliferation” value in assay [2] is 58%.
With GAFTPLQYKSYQD [SEQ ID NO: 359], the “increase in HDF cell proliferation” value in assay [2] worked out at 15%.
For the substance GALMLPHYN [SEQ ID NO: 504], in assay [2], the “increase in HDF cell proliferation” value turned out to be 119%.
On to GALMLPHYNSR [SEQ ID NO: 505], for which the “increase in HDF cell proliferation” value in assay [2] is listed as 118%.
The same measure, in the same setting: as for GYYGEQQQQPGMTR [SEQ ID NO: 248], the figure is 86%; as for HMPSS [SEQ ID NO: 460], 38%.
For the substance HPMS [SEQ ID NO: 495], the “increase in HDF cell proliferation” value in assay [2] is 68%.
As for HPRPPKPDAPR [SEQ ID NO: 452], the “increase in HDF cell proliferation” value in assay [2] is given as 76%.
For the substance HRFR [SEQ ID NO: 461], the “increase in HDF cell proliferation” value in assay [2] is listed as 85%.
Turning to HRRS [SEQ ID NO: 462], the “increase in HDF cell proliferation” value in assay [2] turned out to be 15%.
HSPR [SEQ ID NO: 463]: the “increase in HDF cell proliferation” value in assay [2] stood at 100%.
Turning to HWF (HWFA) [SEQ ID NO: 464], the “increase in HDF cell proliferation” value in assay [2] came out at 18%.
As for IDGYDTPVEGR [SEQ ID NO: 222], the “increase in HDF cell proliferation” value in assay [2] turned out to be 110%.
In the case of IEKILLEE [SEQ ID NO: 337], the “increase in HDF cell proliferation” value in assay [2] was determined as 8%.
Same read-out and setting: in the case of IFEDAITIPGR [SEQ ID NO: 477] it was 81%.
ITASSNLNLLGFG [SEQ ID NO: 93]: in assay [2], the “increase in HDF cell proliferation” value was determined as 26%.
IYGPDTGVDYKDNQMR [SEQ ID NO: 226]: in assay [2], the “increase in HDF cell proliferation” value turned out to be 30%.
KTLDYWPSLR [SEQ ID NO: 479]: in assay [2], the “increase in HDF cell proliferation” value worked out at 106%.
Take LDALEPDNRIESE [SEQ ID NO: 478]: the “increase in HDF cell proliferation” value in assay [2] was 76%.
For LEPDNR [SEQ ID NO: 485], the “increase in HDF cell proliferation” value in assay [2] amounted to 81%.
Still for that read-out and setting: as for LGAPDVGHPM [SEQ ID NO: 403], the figure is 51%.
The same measure, in the same setting: as for LQQAPPPPQR [SEQ ID NO: 453], the figure is 25%.
For the substance LRGFSK [SEQ ID NO: 501], the “increase in HDF cell proliferation” value in assay [2] is listed as 43%.
In the case of LVIPVNGPGK [SEQ ID NO: 121], the “increase in HDF cell proliferation” value in assay [2] turned out to be 48%.
Regarding LVIPVNGPGKF [SEQ ID NO: 105], the “increase in HDF cell proliferation” value in assay [2] stood at 40%.
The same measure, in the same setting: as for LVIPVNGPGKFE [SEQ ID NO: 97], the figure is 26%.
Still for that read-out and setting: in the case of LVIPVNGPGKFEA [SEQ ID NO: 98] it was 49%; in that of LVSHPIAAHEGR [SEQ ID NO: 482], 113%.
In the case of MFRR [SEQ ID NO: 465], in assay [2], the “increase in HDF cell proliferation” value is 96%.
As for MPMP [SEQ ID NO: 497], in assay [2], the “increase in HDF cell proliferation” value came out at 58%.
With MPPS [SEQ ID NO: 467], the “increase in HDF cell proliferation” value in assay [2] is 90%.
As to MPRR [SEQ ID NO: 468], the “increase in HDF cell proliferation” value in assay [2] was 82%.
Regarding NGVLRPGQL [SEQ ID NO: 272], in assay [2], the “increase in HDF cell proliferation” value is 97%.
With NYDEGSEPRVPAQRE [SEQ ID NO: 158], the “increase in HDF cell proliferation” value in assay [2] was 21%.
The same measure, in the same setting: in the case of PHMP [SEQ ID NO: 470] it was 119%.
With PHMPS [SEQ ID NO: 471], in assay [2], the “increase in HDF cell proliferation” value amounted to 38%.
In the case of PNSM [SEQ ID NO: 499], in assay [2], the “increase in HDF cell proliferation” value worked out at 113%.
In the case of PRRF [SEQ ID NO: 472], the “increase in HDF cell proliferation” value in assay [2] worked out at 77%.
Same read-out and setting: as for RHGEWGPSY [SEQ ID NO: 480], the figure is 102%.
On to RHGEWRPSY [SEQ ID NO: 146], for which the “increase in HDF cell proliferation” value in assay [2] is listed as 80%.
As for RSQNIF [SEQ ID NO: 502], the “increase in HDF cell proliferation” value in assay [2] worked out at 68%.
As to SEEGYYGEQQQQPGMTR [SEQ ID NO: 253], in assay [2], the “increase in HDF cell proliferation” value is reported as 112%.
As to SRGPIYSNE [SEQ ID NO: 83], the “increase in HDF cell proliferation” value in assay [2] stood at 32%.
For SSEEGYYGEQQQQPGMTR [SEQ ID NO: 252], the “increase in HDF cell proliferation” value in assay [2] is listed as 111%.
Consider “TIKLPAGTTSYLVNQDDEEDLRLVD [SEQ ID NO: 181]”, for which, in assay [2], the “increase in HDF cell proliferation” value is recorded as 33%.
Consider TVFNGVLRPGQLL [SEQ ID NO: 270], for which the “increase in HDF cell proliferation” value in assay [2] stood at 47%.
On to VGWGEQPWSPY [SEQ ID NO: 454], for which, in assay [2], the “increase in HDF cell proliferation” value amounted to 38%.
With VIPAGHPVAVR [SEQ ID NO: 330], in assay [2], the “increase in HDF cell proliferation” value stood at 18%.
Turning to VIPVNGPGK [SEQ ID NO: 124], in assay [2], the “increase in HDF cell proliferation” value was 15%.
The same measure, in the same setting: as for “VVIIPAGHPVAITASSNLNLLGFG [SEQ ID NO: 112]”, the figure is 15%; as for WDP (WDPA) [SEQ ID NO: 500], 6%; as for WMK (WMKA) [SEQ ID NO: 473], 41%.
Still for that read-out and setting: in the case of YGEQQQQPGMTR [SEQ ID NO: 256] it was 117%; in that of YLRGFS [SEQ ID NO: 503], 125%.
Take YPQLQDLDL [SEQ ID NO: 114]: the “increase in HDF cell proliferation” value in assay [2] was determined as 119%.
On to YRELGAPDVGHPMSE [SEQ ID NO: 410], for which the “increase in HDF cell proliferation” value in assay [2] is on record as 73%.
YYGEQQQQPGMTR [SEQ ID NO: 257]: the “increase in HDF cell proliferation” value in assay [2] is given as 118%.
